Laboratory results published in PubChem BioAssay AID2743 (NMMLSC, 2010).
“And” between values parts separate entries of the source, which are not always exact repeats. Equal values may be shown once. The source made the active and inactive calls.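 The calls were made as follows: active = fitted half-maximal concentration for change in GFP expression of 33 µM or less; inactive = the rest.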

Test: potency of AGP1-GFP expression modulators in yeast, dose response, cell-based, flow cytometry, S. cerevisiae, MLPCN hits (AID 2743)
Conditions: S. cerevisiae AGP1-GFP strain, flow cytometry GFP, 3 h; at 33 µM (top of the series)

| SMILES | GFP fluorescence (kMESF) |
| --- | --- |
| C/C(=N\NC(=O)c1cccc(Br)c1)c1ccccn1 | 42.1 kMESF (inactive) |
| COc1ccc([C@@]2(C(C)C)ON(c3ccccc3C(F)(F)F)C2=O)cc1 | 39.4 kMESF (inactive) |
| Cc1ccc(S(=O)(=O)N2CCCC2C(=O)NCc2ccncc2)cc1 (stereo unspecified) | 32.1 kMESF (inactive) |
| Clc1cccc(CN2COc3c(cc(Cl)c4cccnc34)C2)c1 | 35.6 kMESF (inactive) |
| O=C(OCn1ncc(Br)c(Br)c1=O)c1c(F)cccc1F | 42.7 kMESF (inactive) |
| O=C(NC(=S)NNC(=O)c1ccc(Cl)cc1Cl)c1cccnc1 | 26.1 kMESF (inactive) |
| CC(C)[C@]1(c2ccc(Cl)cc2)ON(c2ccccc2C(F)(F)F)C1=O | 39.3 kMESF (inactive) |
| Cc1ccc(-c2nc(C)sc2CC(=O)Nc2nnc(C)s2)cc1 | 34.5 kMESF (inactive) |
| Cc1cc(S(=O)(=O)ON2C(=O)c3ccccc3C2=O)ccc1F | 43.2 kMESF (inactive) |
| Cc1ccccc1OCCOC(=O)c1ccc(S(=O)(=O)N2CCCC2)cc1 | 38.1 kMESF (inactive) |
| O=C(NNC(=S)NC(=O)c1ccco1)c1ccc(F)cc1 | 43.7 kMESF (inactive) |
| O=C(COc1c(Br)cc(Br)c2cccnc12)N1CCc2ccccc2C1 | 28.6 kMESF (inactive) |
| Cc1ccccc1N1C(=O)C(Cl)=C(N2CCN(c3ccccc3)CC2)C1=O | 41.1 kMESF (inactive) |
| O=C(Nc1nc(-c2ccccn2)cs1)c1cc2ccccc2o1 | 38.7 kMESF (inactive) |
| CCOC(=O)c1c(C)oc2c1c(C(c1ccncc1)N1CCOCC1)c(O)c1ccccc12 (stereo unspecified) | 21.4 kMESF (inactive) |
| CC(=O)Oc1oc(-c2ccccc2)nc1C=Nc1ccc(N(C)C)cc1 | 43.2 kMESF (inactive) |
| O=[N+]([O-])c1ccc(S(=O)(=O)c2ccccc2)nc1 | 44.6 kMESF (inactive) |
| c1ccc(-c2csc(Nc3cccnc3)n2)nc1 | 32.1 kMESF (inactive) |
| O=C1C=C(c2ccc(Cl)cc2)C(=O)N1Nc1ccccc1 | 24.4 kMESF (inactive) |
| CC(C)CC(=O)NC(=S)Nc1nc(-c2ccccc2)cs1 | 38.8 kMESF (inactive) |
| CN(C)c1ccc(N=Cc2nc(-c3ccccc3)oc2OC(=O)c2ccccc2)cc1 | 43 kMESF (inactive) |
| COC(=O)CCC(=O)OC1(C)C(=O)C2=COC(c3ccc(OC)cc3)=CC2=C(Br)C1=O (stereo unspecified) | 7.85 kMESF (inactive) |
| CC1=C/C(=N\OS(=O)(=O)c2ccccc2)C(C(C)C)=CC1=O | 28.8 kMESF (inactive) |

| SMILES | GFP fluorescence (kMESF) |
| --- | --- |
| O=C(Nc1nnc(-c2ccc(F)cc2)o1)c1cc(Cl)sc1Cl | 40.6 kMESF (inactive) |
| Cc1nc2ccc(NC(=O)c3oc4ccc(F)cc4c3C)cc2s1 | 35.7 kMESF (inactive) |
| COc1ccc(-c2cc(C(F)(F)F)nc(S(C)(=O)=O)n2)cc1 | 36 kMESF (inactive) |
| CC(=O)N(\C=C/C=C/C=C1\Sc2ccccc2C1=O)c1ccccc1 | 38.7 kMESF (inactive) |
| Nc1ccccc1C#CC(=O)c1ccccc1 | 31.7 kMESF (inactive) |
| O=C(/C=C/c1ccc(Br)cc1)NC(=S)NNC(=O)c1ccco1 | 36.3 kMESF (inactive) |
| CCCCCCCCCCCCCCCC[n+]1cccc2ccccc21 | 2.67 kMESF (inactive) |
| O=C1/C(=C\c2ccc(O)c(O)c2)SC(=S)N1Cc1ccccc1 | 10.8 kMESF (inactive) |
| O=C(Nc1ccc(Cl)cc1)ON=C1CCCC1 | 28 kMESF (inactive) |
| O=C1C2C3C=CC(CO)(O3)C2C(=O)N1c1ccccc1-c1ccccc1 (stereo unspecified) | 36.3 kMESF (inactive) |
| Cc1ccc(C(=O)O/N=C(\N)Cc2cccs2)c(Cl)c1 | 22.9 kMESF (inactive) |
| COc1ccc(NC2=C(Cl)C(=O)N(CCc3ccccc3)C2=O)cc1 | 43.7 kMESF (inactive) |
| O=C(Oc1c(Cl)cc(Cl)c2cccnc12)c1cccc([N+](=O)[O-])c1 | 34.3 kMESF (inactive) |
| COc1cccc2cc(-c3nc4ccccc4o3)c(=O)oc12 | 20.9 kMESF (inactive) |
| O=C(O)/C=C/C(=O)c1ccc2c(c1)CCc1ccccc1-2 | 18.9 kMESF (inactive) |
| O=[N+]([O-])c1ccc(Sc2nc3ccccc3o2)c([N+](=O)[O-])c1 | 37.2 kMESF (inactive) |
| O=C1C=C(Nc2ccc(Cl)cc2)C(=O)N1c1ccc(Cl)cc1 | 37.8 kMESF (inactive) |
| O=S1(=O)C=C(Sc2nc3ccccc3s2)c2ccccc21 | 34.3 kMESF (inactive) |
| COc1ccc(/C=C/C(=O)C2C(=O)C=C(C)OC2=O)cc1O (stereo unspecified) | 43 kMESF (inactive) |
| Oc1c(CN2CCCCC2)cc(Br)c2cccnc12 | 46.9 kMESF (inactive) |
| CC(=O)OC[C@]12CC[C@H]3[C@@](C)(CC[C@H]4C(C)(C)CCC[C@]34C)[C@@H]1C[C@H](C1=CC(=O)O[C@@H]1OC(C)=O)O2 | 31 kMESF (inactive) |
| Cc1ccc(/C=C2\SC(=S)N(Cc3ccccc3)C2=O)o1 | 38.4 kMESF (inactive) |
| CCN1/C(=C/C(C)=C/c2sc3ccccc3[n+]2CC)Sc2ccccc21 | 47.5 kMESF (inactive) |

| SMILES | GFP fluorescence (kMESF) |
| --- | --- |
| CCCc1cc(NCc2ccccn2)n2nc(C)c(-c3ccccc3)c2n1 | 40.4 kMESF (inactive) |
| Cc1cc(C)c2c(c1)/C(=C/C(=O)c1ccc(Br)s1)C(=O)N2 | 42.9 kMESF (inactive) |
| CN(C)NC(=S)Nc1ccc(S(=O)(=O)N2CCCCC2)cc1 | 40.4 kMESF (inactive) |
| Nc1ccc(Br)c2c1C(=O)c1ccccc1C2=O | 27.1 kMESF (inactive) |
| O=S(=O)(CCN(CCS(=O)(=O)C(F)(F)F)CC1CCCO1)C(F)(F)F (stereo unspecified) | 35.8 kMESF (inactive) |
| O=[N+]([O-])c1cc(F)c2cccnc2c1O | 43.3 kMESF (inactive) |
| CCC(=O)Oc1oc(-c2ccccc2)nc1C=Nc1ccccc1OC | 42.9 kMESF (inactive) |
| Cn1ncc(S(=O)(=O)Cc2ccccc2)c(Cl)c1=O | 43.9 kMESF (inactive) |
| Cc1[nH]n(-c2ncc(-c3ccccc3)s2)c(=O)c1C(c1ccc(Cl)cc1)C(C#N)C#N (stereo unspecified) | 40.6 kMESF (inactive) |
| CCn1c(/C=C/c2ccc([N+](=O)[O-])o2)nc2ccccc2c1=O | -51 kMESF (inactive) |
| CC1=C(C)/C(=N\OS(=O)(=O)c2ccccc2)C=CC1=O | 41.6 kMESF (inactive) |
| CN(C)c1ccc(/C=C/c2cc[n+](C)cc2)cc1 | 30 kMESF (inactive) |
| COc1ccc2c(c1)c(/C=C/c1cc[n+](C)cc1)cn2C | 46.7 kMESF (inactive) |
| CC1(C)OC(c2ccccc2)=C/C(=C/C=C2C(=O)NC(=S)NC2=O)O1 | 36.6 kMESF (inactive) |
| O=C(Nc1cccc(-c2csc(Nc3ccccc3)n2)c1)c1ccccc1 | 31 kMESF (inactive) |
| Cc1ccc(C)c(/C=C/C(=O)c2ccccc(=O)c2O)c1 | 10.5 kMESF (inactive) |
| Oc1c(Br)cc(Br)cc1C=Nc1ccc2c(c1)OCO2 | 42.9 kMESF (inactive) |
| CCc1ccc2c(c1)/C(=C/C(=O)c1cccs1)C(=O)N2 | 42.4 kMESF (inactive) |
| CCOC(=O)COc1ccc2ccccc2c1/C=C/[N+](=O)[O-] | 29.3 kMESF (inactive) |
| CN(C)/C=C/C(=O)c1ccc(-c2ccc(Cl)cc2Cl)o1 | 27.8 kMESF (inactive) |
| CN(Cc1cnc2nc(N)nc(N)c2n1)c1ccc(C(=O)N[C@@H](CCC(=O)O)C(=O)O)cc1 | 45.5 kMESF (inactive) and 51.9 kMESF (inactive) |
| CCCCC1OC23CCCCC2C(C#N)(C(=N)O3)C1(C#N)C#N (stereo unspecified) | 43.3 kMESF (inactive) |
| Cc1cc(C(=O)Nc2nc(-c3ccccn3)cs2)ccc1[N+](=O)[O-] | 44.4 kMESF (inactive) |

| SMILES | GFP fluorescence (kMESF) |
| --- | --- |
| Cc1nn(C)c(C)c1N1C(=O)c2cccc3c(Br)ccc(c23)C1=O | 40.8 kMESF (inactive) |
| O=C(O)c1ccc(COc2ccccc2C=C2C(=O)c3ccccc3C2=O)cc1 | 32.6 kMESF (inactive) |
| O=C(Nc1nc2ccc(F)cc2s1)c1ccccn1 | 41.4 kMESF (inactive) |
| O=[N+]([O-])c1cc(Cl)cc(/C=N\Nc2ccccn2)c1O | 30.3 kMESF (inactive) |
| COc1ccc(N=Nc2ccc(O)c3ncccc23)cc1 | 40.8 kMESF (inactive) |
| O=C1CCN(S(=O)(=O)c2ccccc2)CCN1CCOCc1ccc(F)cc1 | 33.5 kMESF (inactive) |
| O=C(CS(=O)c1ccccc1[N+](=O)[O-])Oc1ccc(Br)cc1 (stereo unspecified) | 42.8 kMESF (inactive) |
| C[n+]1ccc(/C=C/c2c[nH]c3ccccc23)cc1 | 44 kMESF (inactive) |
| Cc1cc(=O)n2c3c(sc2n1)C(=O)N(Cc1ccccc1)C3=O | 44.3 kMESF (inactive) |
| O=C(Nc1ccc(O)cc1)C1CCCN1S(=O)(=O)c1ccc(F)cc1 (stereo unspecified) | 42.4 kMESF (inactive) |
| O=C(/C=C/c1ccccc1Cl)c1ccccc(=O)c1O | 6.58 kMESF (inactive) |
| Cc1ccc(C(=O)Oc2oc(-c3ccco3)nc2C=Nc2ccc(Cl)cc2)cc1 | 35 kMESF (inactive) |
| O=C1c2sc3nc4ccccc4n3c2C(=O)N1c1ccccc1Cl | 23.1 kMESF (inactive) |
| O=C1c2cccc3c([N+](=O)[O-])ccc(c23)C(=O)N1CCc1ccccn1 | 44.1 kMESF (inactive) |
| COc1cc(/C=C2/C(=O)ON=C2c2ccccc2)ccc1O | 25 kMESF (inactive) |
| N/C(=N\OC(=O)c1cccc(Br)c1)c1ccccc1 | 21.7 kMESF (inactive) |
| N#C/C(=C\c1cc(Br)ccc1F)C(=O)NC1CC1 | 30.6 kMESF (inactive) |
| O=C(c1ccc([N+](=O)[O-])o1)N1CCN(c2nc3c(F)cc(F)cc3s2)CC1 | 30.3 kMESF (inactive) |
| O=C1C(Cl)=C(Nc2ccccc2O)C(=O)N1CCc1ccccc1 | 39.3 kMESF (inactive) |
| CC(C)(C)C(=O)NC(=S)NNC(=O)c1sc2ccccc2c1Cl | 34.2 kMESF (inactive) |
| O=S(=O)(/N=C(\Sc1ccc(Cl)cc1)c1ccccc1)c1ccccc1 | 36.1 kMESF (inactive) |
| COc1cccc(N=Nc2ccc(O)c3ncccc23)c1 | 45.7 kMESF (inactive) |
